# Data reported in the supplement of paper PMC10307832.
# Columns and labels:
# Assay in all cases: relative viability (nuclei count vs DMSO), 5 days (fraction); higher = more cells survive
# [1] = compound: C1=CC2=C(C=CC(=C2)C=C3C(=O)NC(=NCC4=CC=CS4)S3)N=C1 [RO-3306] + N=C(N)NC(=N)NCCc1ccccc1 [Phenformin] (partner 250 µM)
# Procedure, shortened: (§1)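 Five library-drug doses in √10 steps were combined with a fixed anchor-drug dose, or a single drug was given alone, by pin tool to lung cancer cell lines in 1536-well plates the day after seeding. Nuclei were stained and counted after 5 days. Relative viability is the nuclei count in treated wells over that in vehicle wells, taken as the median of duplicate plates.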
# [2] = compound: O=S(=O)(c1ccccc1)N(CC(F)(F)F)c1ccc(C(O)(C(F)(F)F)C(F)(F)F)cc1 + Nc1ncn([C@H]2C[C@H](O)[C@@H](CO)O2)c(=O)n1 [Decitabine] (partner 2 µM)
# Procedure, shortened: as §1
# [3] = compound: C1=CC2=C(C=CC(=C2)C=C3C(=O)NC(=NCC4=CC=CS4)S3)N=C1 [RO-3306] + C[C@]1(O)C[C@@H](c2nc(-c3ccc4ccc(-c5ccccc5)nc4c3)c3c(N)nccn32)C1 [Linsitinib] (partner 1 µM)
# Procedure, shortened: as §1
# [4] = compound: C1=CC2=C(C=CC(=C2)C=C3C(=O)NC(=NCC4=CC=CS4)S3)N=C1 [RO-3306] + Nc1ncn([C@H]2C[C@H](O)[C@@H](CO)O2)c(=O)n1 [Decitabine] (partner 2 µM)
# Procedure, shortened: as §1
Cell Line,relative viability ([1]; first compound 0.01 µM),relative viability ([1]; first compound 0.03162 µM),relative viability ([1]; first compound 0.1 µM),relative viability ([1]; first compound 0.3162 µM),relative viability ([1]; first compound 1 µM),relative viability ([2]; first compound 0.8 µM),relative viability ([2]; first compound 2.53 µM),relative viability ([2]; first compound 8 µM),relative viability ([3]; first compound 0.01 µM),relative viability ([3]; first compound 0.03162 µM),relative viability ([3]; first compound 0.1 µM),relative viability ([3]; first compound 0.3162 µM),relative viability ([3]; first compound 1 µM),relative viability ([4]; first compound 0.01 µM),relative viability ([4]; first compound 0.03162 µM),relative viability ([4]; first compound 0.1 µM),relative viability ([4]; first compound 0.3162 µM),relative viability ([4]; first compound 1 µM)
HCC-15,0.519,0.333,0.459,0.464,0.423,0.562,0.419,0.5,0.924,0.755,0.863,0.892,0.839,0.606,0.547,0.563,0.662,0.552
HCC-44,0.226,0.21,0.163,0.185,0.196,1.03,0.968,0.991,0.718,0.674,0.68,0.663,0.693,0.951,0.95,1.02,0.917,0.956
NCI-H2170,0.425,0.422,0.396,0.383,0.435,0.496,0.439,0.475,–,–,–,–,–,0.473,0.433,0.471,0.458,0.486
NCI-H2228,0.286,0.211,0.276,0.32,0.241,–,–,–,0.963,0.529,0.678,0.655,0.617,–,–,–,–,–
NCI-H727,0.535,–,0.502,0.458,0.576,0.922,0.963,0.913,0.464,0.221,0.28,0.277,0.35,0.834,0.751,0.891,0.888,0.846
NCI-H522,0.599,0.615,0.699,0.666,0.733,0.565,0.608,0.746,–,–,–,–,–,0.736,0.544,0.712,0.775,0.638
NCI-H1563,0.643,0.639,0.641,0.631,0.666,–,–,–,1.08,1.14,1.3,1.18,1.16,–,–,–,–,–
EPLC-272H,0.312,0.399,0.308,0.25,0.317,0.412,0.374,0.359,1.2,0.768,1.24,1.04,0.96,0.367,–,0.335,0.324,0.355
NCI-H1437,0.317,0.261,0.308,0.297,0.316,0.609,0.549,0.568,1.15,0.673,0.945,1.03,1.1,0.59,0.513,0.549,0.596,0.631
